Measured values from US7109222B2, “Compounds that modulate PPAR activity and methods of preparation” (Warner-Lambert Company, LLC, priority 2002, dated 2006).

Tests used:
hPPARβ = target: T1, hPPARβ (Homo sapiens, UniProt Q03181); test: Test A: transient transfection assay in HepG2 cells, Gal4-PPAR chimeric receptor, luciferase reporter (hPPARβ); assay type: cell-based; conditions: HepG2 cells transfected with hPPARβ chimeric receptor; 24 hours incubation; compound 50 μM to 50 pM; read-out: Hep G2-hβ EC50
T1 sequence (Q03181 211-441 limits assumed): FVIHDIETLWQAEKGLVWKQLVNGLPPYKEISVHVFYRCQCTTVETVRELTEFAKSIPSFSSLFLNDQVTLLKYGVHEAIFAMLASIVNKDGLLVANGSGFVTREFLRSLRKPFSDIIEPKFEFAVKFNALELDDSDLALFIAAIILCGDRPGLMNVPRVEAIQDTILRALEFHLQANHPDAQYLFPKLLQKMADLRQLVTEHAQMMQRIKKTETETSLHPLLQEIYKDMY
Procedure: (§1) 1. Test A. Transient Transfections Assay Using the HepG2 Hepatoma Cell Line.
(§2) HepG2 cells were transiently transfected with an expression plasmids encoding hPPARα, hPPARβ or mPPARγ chimeric receptors and a reporter containing the yeast upstream activating sequence (UAS) upstream of the viral E1B promoter controlling a luciferase reporter gene. In addition, the plasmid pRSVβ-gal was used to control for transfection efficiency. HepG2 cells were grown in DMEM supplemented with 10% FBS and 1 μM non-essential amino acid. On the first day, cells were split into 100 mm dishes at 2.5×10^6/dish and incubated overnight at 37C.°/5% CO2. On the second day the cells were transiently transfected with plasmid DNA encoding a chimeric receptor, the luciferase reporter gene; and β-gal. For each 100 mm dish, 15 μg of lucifease reporter (PG5E1b) DNA, 15 μg of Gal4-pPAR chimeric receptor DNA, and 1.5 μg of μ-gal plasmid DNA were mixed with 1.4 ml of opti-MEM in the tube. 28 μl of LipoFectamine-2000 reagent was added to 1.4 ml of opti-MEM in the tube, and incubate for 5 min at RT. The diluted Lipofectamine-2000 reagent was combined with the DNA mixture, and incubate for 20 min at RT. After fresh medium was added to each 100 mm dish of cells, 2.8 ml of Lipofectamine2000-DNA mixture was added dropwise to the 100 mm dish containing 14 ml of medium, and incubate 37° C. overnight. On day three cells were trypsinized off the 100 mm dishes and re-plated on 96 well plates. Cells were plated at 2.5×10^4 cells per well in 150 μl of media and 50 μl of compound diluted by media was added. The concentrations of reference agents and test compound added were in the range from 50 μM to 50 pM. After addition of compounds, the plates were incubated at 37° C. for 24 hours. Subsequently cells were washed once with 100 μl of PBS, lysed, and processed for measuring luciferase and μ-gal activity using Dual-Light luciferase kit from Tropix®, according to the manufacturer's recommendations, on an EG&G Bethold MicroLumat LB96P luminometer. EC50 values were obtained using the GraphPad Prism™ program.

hPPARα = target: T2, hPPARα (Homo sapiens, UniProt Q07869); test: Test A: transient transfection assay in HepG2 cells, Gal4-PPAR chimeric receptor, luciferase reporter (hPPARα); assay type: cell-based; conditions: HepG2 cells transfected with hPPARα chimeric receptor; 24 hours incubation; compound 50 μM to 50 pM; read-out: Hep G2-hα EC50
T2 sequence (Q07869 200-468 limits assumed): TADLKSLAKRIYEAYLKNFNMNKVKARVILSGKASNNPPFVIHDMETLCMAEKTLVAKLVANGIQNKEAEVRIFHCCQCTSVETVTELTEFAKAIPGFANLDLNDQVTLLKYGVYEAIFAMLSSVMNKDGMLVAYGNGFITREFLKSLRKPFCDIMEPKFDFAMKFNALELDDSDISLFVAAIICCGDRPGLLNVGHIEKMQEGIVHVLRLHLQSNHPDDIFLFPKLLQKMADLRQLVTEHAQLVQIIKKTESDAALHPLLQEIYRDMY
Procedure: as §1
as §2, with “program. […] Accordingly, the compounds of the present invention should find considerable therapeutic applications for hypercholesterolemia and hyperlipidemia.” for “program.”

EC50 (hPPARβ) [µM]	EC50 (hPPARα) [µM]	melting point [°C]	Compound
0.178	0.384	–	Cc1nc(-c2ccc(C(F)(F)F)cc2)sc1CSc1ccc2c(c1)CC(C(=O)O)C2 (stereo not shown) [Example 1, 5-[4-methyl-2-(4-trifluoromethyl-phenyl)-thiazol-5-ylmethylsulfanyl]-indan-2-carboxylic acid]
0.267	1.96	–	Cc1nc(-c2ccc(C(F)(F)F)cc2)sc1CSc1ccc2c(c1)CC(CC(=O)O)C2 (stereo not shown) [Example 2, {5-[4-methyl-2-(4-trifluoromethyl-phenyl)-thiazol-5-ylmethylsulfanyl]-indan-2-yl}-acetic acid]
0.762	0.917	–	Cc1nc(-c2ccc(C(F)(F)F)cc2)sc1CSc1ccc2c(c1)CCC(C(=O)O)O2 (stereo not shown) [Example 3]
1.54	0.899	–	Cc1nc(-c2ccc(C(F)(F)F)cc2)sc1CSc1ccc2c(c1)CC(CC(=O)O)O2 (stereo not shown) [Example 4, {5-[4-Methyl-2-(4-trifluoromethyl-phenyl)-thiazol-5-ylmethylsulfanyl]-2,3-dihydro-benzofuran-2-yl}-acetic acid]
0.0083	3.74	–	Cc1nc(-c2ccc(C(F)(F)F)cc2)sc1CSc1ccc2c(c1)CCC(CC(=O)O)O2 (stereo not shown) [Example 5]
–	2.04	207 to 209	Cc1nc(-c2ccc(C(F)(F)F)cc2)sc1CSc1ccc2oc(C(=O)O)cc2c1 [Example 6, 5-[4-methyl-2-(4-trifluoromethyl-phenyl)-thiazol-5-ylmethylsulfanyl]-benzofuran-2-carboxylic acid]
0.614	–	–	Cc1nc(-c2ccc(C(F)(F)F)cc2)sc1CSc1ccc2c(c1)CCC(CC(=O)O)C2=O (stereo not shown) [Example 7, {6-[4-Methyl-2-(4-trifluoromethylphenyl)thiazol-5-ylmethylsulfanyl]-1-oxo-3,4-dihydro-1H-naphthalen-2-yl}-acetic acid]
3.47	–	–	Cc1nc(-c2ccc(C(F)(F)F)cc2)sc1CSc1ccc2c(c1)CCC(C)(CC(=O)O)O2 (stereo not shown) [Example 8, {2-methyl-6-[4-methyl-2-(4-trifluoromethyl-phenyl)-thiazol-5-ylmethylsulfanyl]-chroman-2-yl}-acetic acid]
0.111	–	–	Cc1nc(-c2ccc(C(F)(F)F)cc2)sc1CSc1ccc2c(c1)CCN(CC(=O)O)C2 [Example 10, {6-[4-Methyl-2-(4-trifluoromethyl-phenyl)-thiazol-5-ylmethylsulfanyl]-3,4-dihydro-1H-isoquinolin-2-yl}-acetic acid]
0.286	1.93	–	Cc1nc(-c2ccc(C(F)(F)F)cc2)sc1CSc1ccc2c(c1)CCCN2CC(=O)O [Example 11, {6-[4-methyl-2-(4-trifluoromethyl-phenyl)-thiazol-5-ylmethylsulfanyl]-3,4-dihydro-2H-quinolin-1-yl}-acetic acid]
0.896	–	–	Cc1nc(-c2ccc(C(F)(F)F)cc2)sc1CSc1ccc2c(c1)CCC(=O)N2CC(=O)O [Example 12]
0.0241	1.19	–	COc1cc2c(cc1SCc1sc(-c3ccc(C(F)(F)F)cc3)nc1C)CCC(CC(=O)O)C2 (stereo not shown) [Example 13, {7-Methoxy-6-[4-methyl-2-(4-trifluoromethyl-phenyl)-thiazol-5-ylmethylsulfanyl]-1,2,3,4-tetrahydro-naphthalen-2-yl}-acetic acid]
0.019	–	–	COc1cc2c(cc1SCc1sc(-c3ccc(C(F)(F)F)cc3)nc1C)CCC(CC(=O)O)O2 (stereo not shown) [Example 14, 7-methoxy-6-[4-methyl-2-(4-trifluoromethyl-pheny)-thiazol-5-ylmethylsulfanyl]-chroman-2-yl-acetic acid]
0.252	1.3	–	Cc1cc2c(cc1SCc1sc(-c3ccc(C(F)(F)F)cc3)nc1C)CCC(CC(=O)O)O2 (stereo not shown) [Example 15, 7-Methyl-6-[4-methyl-2-(4-trifluoromethyl-pheny)-thiazol-5-ylmethylsulfanyl]-chroman-2-yl-acetic acid]
2.21	–	–	Cc1nc(-c2ccc(C(F)(F)F)cc2)sc1CSc1ccc2c(c1)C=C(C(=O)O)CO2 [Example 16, 6-[4-methyl-2-(4-trifluoromethyl-pheny)-thiazol-5-ylmethylsulfanyl]-2H-chromene-3-carboxylic acid]
2.13	2.19	139 to 140	Cc1nc(-c2ccc(C(F)(F)F)cc2)sc1CSc1ccc2c(c1)CC(C(=O)O)CO2 (stereo not shown) [Example 17, 6-[4-methyl-2-(4-trifluoromethyl-pheny)-thiazol-5-ylmethylsulfanyl]-chroman-3-carboxylic acid]
0.394	1000	149 to 149.5	Cc1nc(-c2ccc(C(F)(F)F)cc2)sc1CSc1ccc2c(c1)CC(CC(=O)O)CO2 (stereo not shown) [Example 18, 6-[4-methyl-2-(4-trifluoromethyl-pheny)-thiazol-5-ylmethylsulfanyl]-chroman-3-yl-acetic acid]
0.113	0.042	–	COc1cc2c(cc1SCc1sc(-c3ccc(C(F)(F)F)cc3)nc1C)CCC2CC(=O)O (stereo not shown) [Example 19, {6-Methoxy-5-[4-methyl-2-(4-trifluoromethyl-phenyl)-thiazol-5-ylmethylsulfanyl]-indan-1-yl}-acetic acid]
–	–	245 to 247	COc1cc2on(CC(=O)O)c(=O)c2cc1SCc1sc(-c2ccc(C(F)(F)F)cc2)nc1C [Example 22, 6-Methoxy-5-[4-Methyl-2-(4-trifluoromethyl-pheny)-thiazol-5-ylmethylsulfanyl]-3-oxo-3H-benzo[d]isoxazo-2-yl-acetic-acid]
–	0.572	–	Cc1nc(-c2ccc(C(F)(F)F)cc2)sc1COc1ccc2c(CC(=O)O)csc2c1 [Example 23, {6-[4-Methyl-2-(4-trifluoromethyl-phenyl)-thiazol-5-ylmethoxy]-benzo[b]thiophen-3-yl}-acetic acid]
